Each compound was assayed on rat-derived basophils (RBL-2H3) (assay: β-Hexosaminidase release-inhibition assay). Settings: antigen (DNP-BSA)-stimulated RBL-2H3; FIG. 7, FIG. 8.
Format: cell-based
Experimental: The assay principle of the β-hexosaminidase release assay is as follows:
β-hexosaminidase is a glycolytic enzyme, and is one of the lysosome enzymes occurring abundantly in granules of mast cells.
In the β-hexosaminidase release assay, p-nitrophenyl phosphate is separated due to the presence of this enzyme. The separated p-nitrophenyl phosphate is determined by a photometric method (405 nm), and the result is set as the β-hexosaminidase enzyme activity.
The effect of inhibiting β-hexosaminidase release was evaluated using the anti-allergic effect test that uses as an index β-hexosaminidase released from the rat-derived basophils (RBL-2H3).
RBL-2H3 cells were cultured (5% carbon dioxide, 37° C.) in an Eagle minimum essential medium containing 10% fetal calf serum (FCS), 100 units/mL penicillin and 100 μg/mL streptomycin. Then, the cells were plated to a 24-well flat-bottomed microplate for cell culture at 2.5×10^5 cells/well ([…] medium/well). By culturing for 24 hours (5% carbon dioxide, 37° C.), the cells were sensitized. The sensitized cells were then washed once in 500 μl of PBF, and 160 μl of the siraganian buffer containing 5.6 mM glucose, 1 mM calcium chloride and 0.1% BSA was added. A sample solution at each concentration and 20 μl of the test substance solution (DMSO: 0.1%) were added, and ten minutes later the antigen (DNP-BSA: 10 μg/mL) was added and incubated for 10 minutes to stimulate the cells. After stopping the reaction by cooling with ice for 10 minutes, 50 μl of the supernatant was transferred to a 96-well flat-bottomed microtiter plate, to which 100 μl of the enzyme reaction was added and mixed. After determining absorbance of the mixture by a microplate reader, the release ratio was determined by the following equation (measurement wavelength: 405 nm, reference wavelength: 655 nm). β-hexosaminidase release ratio (%)=[amount of β-hexosaminidase released by stimulation/amount of total intracellular β-hexosaminidase]×100
Total intracellular β-hexosaminidase was determined using the supernatant obtained by centrifuging the cells disrupted by an ultrasonic disruption instrument.

Row | Compound | Effect of inhibiting β-hexosaminidase release
1 | CC[C@H](CC[C@@H](C)[C@H]1CCC2[C@@H]3CCC4=CC(=O)CC[C@]4(C)C3CC[C@@]21C)C(C)C (stereo partly shown) [stigmast-4-en-3-one] | roughly confirmed
2 | CC[C@H](/C=C/[C@@H](C)[C@H]1CCC2[C@@H]3CCC4=CC(=O)CC[C@]4(C)C3CC[C@@]21C)C(C)C (stereo partly shown) [stigmasta-4,22-dien-3-one] | roughly confirmed
3 | CC[C@H](CC[C@@H](C)[C@H]1CC[C@H]2[C@@H]3CC(=O)C4=CC(=O)CC[C@]4(C)[C@H]3CC[C@]12C)C(C)C [stigmast-4-ene-3,6-dione] | roughly confirmed
4 | c1ccc2c(c1)[I+]c1ccccc1-2 [DPI, reference compound] | inhibited, in a concentration-dependent manner

From patent US7431953B2, “Skin preparation for external use containing Purpuricenus temminckii frass as the active ingredient” (Nihon University, priority 2002, dated 2008)
